Laboratory results reported in US5670503A, “Pyrazole derivatives” (Fujisawa Pharmaceutical Co., Ltd., priority 1993, dated 1997).
pIC50: −log10 of the molar value.

Tests used:
[1] = system: production of tumor necrosis factor (TNF); test: Inhibitory activity on the production of tumor necrosis factor (TNF) in LPS-stimulated human peripheral blood monocyte; assay type: cell-based; conditions: 48 h; purified human peripheral blood monocyte, LPS 1 μg/10^4 cells, 2 days at 37° C., TNF ELISA of supernatant; read-out: IC50 (inhibition of TNF production)
Experimental: Purified human peripheral blood monocyte were stimulated with bacterial lipopolysaccharide (1 μg/10^4 cells) in the absence or presence of appropriately diluted test compound for 2 days at 37° C. in a humidified 5% CO2 atmosphere. Culture supernatants were tested for TNF ELISA assay.
TNF levels were quantified by a commercial ELISA kit (Endogen, Inc. USA) using a sandwich technique. The sensitivity levels for the detection of TNF were 12 pg/ml.
(§1) The inhibitory concentration that caused a 50% inhibition (IC50) was calculated by regression analysis of the dose-response data.

[2] = system: production of Interleukin-1 (IL-1); test: Inhibitory activity on the production of Interleukin-1 (IL-1) in LPS-stimulated human peripheral blood monocyte; assay type: cell-based; conditions: 48 h; purified human peripheral blood monocyte, LPS 1 μg/10^4 cells, 2 days at 37° C., IL-1β ELISA of supernatant; read-out: IC50 (inhibition of IL-1 production)
Experimental: Purified human peripheral blood monocyte were stimulated with bacterial lipopolysaccharide (1 μg/10^4 cells) in the absence or presence of appropriately diluted test compound for 2 days at 37° C. in a humidified 5% CO2 atmosphere. Culture supernatants were tested for IL-1 ELISA assay.
Test compound was dissolved in absolute DMSO (dimethyl sulfoxide) to achieve 10 mM stock solutions and was subsequently diluted in serum free RPMI1640.
IL-1 levels were quantified by a commercial ELISA kit (Ohtsuka assay, Japan) using a sandwich technique. The sensitivity levels for the detection of IL-1β were 20 pg/ml.
as §1

Row | pIC50 [2] | SMILES | pIC50 [1]
1 | 7.06 | Fc1ccc(-c2nn3c(c2-c2ccncc2)NN(C2CCCCC2)CC3)cc1 [Example 18-(2), 2-Cyclohexyl-7-(4-Fluorophenyl)-8-(pyridin-4-yl)-1,2,3,4-tetrahydropyrazolo[5,1-c][1,2,4]triazine] | 6.96
2 | 7.04 | CC(C)(C)CN1CCn2nc(-c3ccc(F)cc3)c(-c3ccncc3)c2N1 [Example 16-(5), 7-(4-Fluorophenyl)-2-neopentyl-8-(pyridin-4-yl)-1,2,3,4-tetrahydropyrazolo[5,1-c][1,2,4]triazine] | 7.04
